US20100278733A1, “COMPOSITION FOR DIAGNOSIS OF AMYLOID-RELATED DISEASE” (priority 2007, published 2010)

Key:
[1] = In-vivo radioactivity distribution experiment in normal mice (Reference Example 2); conditions: Reference Example 2 numbering; for Radioactivity concentration in the brain of mice: intravenous
Experimental: Labeled compounds, [^11C]Compounds 23 and 7, were diluted with physiological saline containing 10% ethanol. 100 μL of each of the labeled compounds was intravenously infused to five 5-week-old male ddY mice per group, the animals were decapitated at 2, 10, 30, or 60 min, blood was collected, and then weights and radioactivities thereof were measured.

[2] = In-vivo radioactivity distribution experiment using normal mice (Example 2); conditions: Example 2 numbering; for In-vivo radioactivity distribution: blood / In-vivo radioactivity distribution: brain / In-vivo radioactivity distribution: heart / In-vivo radioactivity distribution: intestine / In-vivo radioactivity distribution: kidney / In-vivo radioactivity distribution: liver / In-vivo radioactivity distribution: lung / In-vivo radioactivity distribution: pancreas / In-vivo radioactivity distribution: spleen / In-vivo radioactivity distribution: stomach: normal mice, intravenous
Experimental: Radioactive iodine labeling compounds were diluted with physiological saline containing 10% EtOH. To each of four or five 5-week-old male ddY mice (20 to 25 g) per group, […] of a labeled compound, [^125I]Compound 7, 10, 13, or 14 (0.2 to 0.4 mCi), was administered from the caudal vein. Animals were decapitated at 2, 10, 30, or 60 min, blood was collected, the major organs were isolated, and then weights and radioactivities thereof were measured.

Aβ(1-42) aggregate = target: T1, Aβ(1-42) aggregate (Homo sapiens, UniProt P05067); assay: Binding inhibition experiment using Aβ(1-42) aggregate, Ki values (Example 2); conditions: compound numbers of Example 2; for Ki: radioactive ligand [^125I]CL-NMe2, mean ± standard error of 3 experiments (compound 4: 6 experiments), read-out: Ki values calculated by inhibition experiment
T1 construct: Amyloid β protein (Human, 1-42) [TFA form] was purchased from Peptide Institute, Inc; purchased Peptide Institute, Inc
T1 sequence (P05067 672-713 limits assumed): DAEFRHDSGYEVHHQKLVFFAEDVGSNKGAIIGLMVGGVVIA
Experimental: As a radioactive iodine-125 (^125I), Iodine-125 (3.7 GBq/mL) manufactured by MP Biomedicals, Inc. was used. Reverse phase HPLC was performed at a flow rate of 1.0 mL/min using a Cosmosil 5C18-AR-II column (4.6×150 mm) manufactured by Nacalai Tesque Inc. and ultrapure water:acetonitrile=3:7 as an elution solvent. ^1HNMR was measured using Varian Gemini 300 and tetramethylsilane as an internal standard substance. Mass spectrometry was performed using JEOL IMS-DX300. Preparative TLC was performed using 12 PLC plates 20×20-cm-Silica gel 60 F254, 2 mm manufactured by MERCK. Amyloid β protein (Human, 1-42) was purchased from Peptide Institute, Inc., and special grade reagents were used as other reagents.
Aβ(1-42) was dissolved in 10 mM phosphate buffer containing 1 mM EDTA (pH 7.4) at a concentration of 0.25 mg/mL, and the mixture was incubated at 37° C. for 42 h to prepare an Aβ(1-42) aggregate.
[…] of 10% EtOH solution, […] of a solution of [^125I]4-diethylamino-4′-iodochalcone ([^125I]CL-NMe2) in 10% ethanol, and […] of a sample solution at various concentrations (0 to 20 mM) were mixed, […] of an Aβ(1-42) aggregate solution was finally added, and the mixture was allowed to stand at room temperature for 3 h. Aβ(1-42) aggregate-bound compounds and nonbound compounds were separated with a Brandel M-24R cell harvester using a Whatman GF/B filter. Radioactivities remaining on the filter after filtration were measured with a γ-counter, and inhibition curves were created using Graph Pad Prism 4.0 to calculate inhibition constants (Ki values).

CN(C)c1ccc(/C=C/C(=O)c2ccc(OCCOCCOCCF)cc2)cc1 [Compound 7 in Reference Example 2, (E)-1-(4-(2-(2-(2-fluoroethoxy)ethoxy)ethoxy)phenyl)-3-(4-(dimethylamino)phenyl)prop-2-en-1-one]
ratio of brain radioactivity at 60 min to that at 2 min after administration [1]: 8.1%
ratio of the radioactivity remaining in the brain at 30 min after administration to that at 2 min after administration [1]: 14.8%
Radioactivity concentration in the brain of mice ([1]; 2 min after administration, listed as [^11C] 7): 4.31 ± 0.33 % ID/g
Radioactivity concentration in the brain of mice ([1]; 2 min after administration, listed as [^11C]Compound 7): 4.31 % ID/g
Radioactivity concentration in the brain of mice ([1]; 10 min after administration): 1.38 ± 0.16 % ID/g
Radioactivity concentration in the brain of mice ([1]; 30 min after administration): 0.64 ± 0.07 % ID/g
Radioactivity concentration in the brain of mice ([1]; 60 min after administration, listed as [^11C] 7): 0.35 ± 0.03 % ID/g
Radioactivity concentration in the brain of mice ([1]; 60 min after administration, listed as [^11C]Compound 7): 0.35 % ID/g

CN(C)c1ccc(C(=O)/C=C/c2ccc(I)cc2)cc1 [Compound 10 in Example 2, 4-iodo-4′-dimethylaminochalcone]
In-vivo radioactivity distribution: blood ([2]; 2 min): 1.87 (0.23) percent of the dose/g
In-vivo radioactivity distribution: brain ([2]; 2 min): 2.77 (0.37) percent of the dose/g
In-vivo radioactivity distribution: heart ([2]; 2 min): 5.23 (0.61) percent of the dose/g
In-vivo radioactivity distribution: intestine ([2]; 2 min): 2.69 (0.43) percent of the dose/g
In-vivo radioactivity distribution: kidney ([2]; 2 min): 6.30 (0.85) percent of the dose/g
In-vivo radioactivity distribution: liver ([2]; 2 min): 13.99 (1.57) percent of the dose/g
In-vivo radioactivity distribution: lung ([2]; 2 min): 6.02 (0.60) percent of the dose/g
In-vivo radioactivity distribution: pancreas ([2]; 2 min): 3.85 (1.97) percent of the dose/g
In-vivo radioactivity distribution: spleen ([2]; 2 min): 2.35 (0.35) percent of the dose/g
In-vivo radioactivity distribution: stomach ([2]; 2 min): 0.76 (0.13) percent of the dose
In-vivo radioactivity distribution: blood ([2]; 10 min): 1.89 (0.61) percent of the dose/g
In-vivo radioactivity distribution: brain ([2]; 10 min): 2.04 (0.26) percent of the dose/g
In-vivo radioactivity distribution: heart ([2]; 10 min): 2.05 (0.37) percent of the dose/g
In-vivo radioactivity distribution: intestine ([2]; 10 min): 9.27 (1.36) percent of the dose/g
In-vivo radioactivity distribution: kidney ([2]; 10 min): 4.51 (1.29) percent of the dose/g
In-vivo radioactivity distribution: liver ([2]; 10 min): 10.29 (2.06) percent of the dose/g
In-vivo radioactivity distribution: lung ([2]; 10 min): 3.92 (0.76) percent of the dose/g
In-vivo radioactivity distribution: pancreas ([2]; 10 min): 2.12 (0.31) percent of the dose/g
In-vivo radioactivity distribution: spleen ([2]; 10 min): 1.52 (0.19) percent of the dose/g
In-vivo radioactivity distribution: stomach ([2]; 10 min): 0.89 (0.28) percent of the dose
In-vivo radioactivity distribution: blood ([2]; 30 min): 1.51 (0.40) percent of the dose/g
In-vivo radioactivity distribution: brain ([2]; 30 min): 0.63 (0.06) percent of the dose/g
In-vivo radioactivity distribution: heart ([2]; 30 min): 1.10 (0.16) percent of the dose/g
In-vivo radioactivity distribution: intestine ([2]; 30 min): 12.50 (2.49) percent of the dose/g
In-vivo radioactivity distribution: kidney ([2]; 30 min): 4.10 (1.15) percent of the dose/g
In-vivo radioactivity distribution: liver ([2]; 30 min): 6.69 (1.21) percent of the dose/g
In-vivo radioactivity distribution: lung ([2]; 30 min): 1.95 (0.25) percent of the dose/g
In-vivo radioactivity distribution: pancreas ([2]; 30 min): 0.85 (0.10) percent of the dose/g
In-vivo radioactivity distribution: spleen ([2]; 30 min): 0.82 (0.15) percent of the dose/g
In-vivo radioactivity distribution: stomach ([2]; 30 min): 0.73 (0.23) percent of the dose
In-vivo radioactivity distribution: blood ([2]; 60 min): 1.38 (0.54) percent of the dose/g
In-vivo radioactivity distribution: brain ([2]; 60 min): 0.42 (0.11) percent of the dose/g
In-vivo radioactivity distribution: heart ([2]; 60 min): 0.84 (0.26) percent of the dose/g
In-vivo radioactivity distribution: intestine ([2]; 60 min): 20.09 (5.48) percent of the dose/g
In-vivo radioactivity distribution: kidney ([2]; 60 min): 4.59 (1.57) percent of the dose/g
In-vivo radioactivity distribution: liver ([2]; 60 min): 7.06 (2.45) percent of the dose/g
In-vivo radioactivity distribution: lung ([2]; 60 min): 1.71 (0.29) percent of the dose/g
In-vivo radioactivity distribution: pancreas ([2]; 60 min): 0.84 (0.22) percent of the dose/g
In-vivo radioactivity distribution: spleen ([2]; 60 min): 0.89 (0.12) percent of the dose/g
In-vivo radioactivity distribution: stomach ([2]; 60 min): 2.17 (1.24) percent of the dose
Ki (Aβ(1-42) aggregate): 13.3 ± 1.9 nM

CNc1ccc(C=CC(=O)c2ccc(I)s2)cc1 [Compound 13 in Example 2, 1-(5-iodo-2-thienyl)-3-(4-methylaminophenyl)-prop-2-en-1-one]
stability in the organism ([2]; in words: radioactivity accumulation in the stomach, retention in blood, deiodination): instability in the organism
In-vivo radioactivity distribution: blood ([2]; 2 min): 3.00 (0.83) percent of the dose/g
In-vivo radioactivity distribution: brain ([2]; 2 min): 2.56 (0.44) percent of the dose/g
In-vivo radioactivity distribution: heart ([2]; 2 min): 3.55 (0.57) percent of the dose/g
In-vivo radioactivity distribution: intestine ([2]; 2 min): 1.60 (0.32) percent of the dose/g
In-vivo radioactivity distribution: kidney ([2]; 2 min): 4.50 (1.00) percent of the dose/g
In-vivo radioactivity distribution: liver ([2]; 2 min): 8.41 (1.24) percent of the dose/g
In-vivo radioactivity distribution: lung ([2]; 2 min): 5.61 (1.33) percent of the dose/g
In-vivo radioactivity distribution: pancreas ([2]; 2 min): 3.73 (0.67) percent of the dose/g
In-vivo radioactivity distribution: spleen ([2]; 2 min): 2.06 (0.49) percent of the dose/g
In-vivo radioactivity distribution: stomach ([2]; 2 min): 1.48 (0.39) percent of the dose
In-vivo radioactivity distribution: blood ([2]; 10 min): 3.68 (0.70) percent of the dose/g
In-vivo radioactivity distribution: brain ([2]; 10 min): 1.13 (0.16) percent of the dose/g
In-vivo radioactivity distribution: heart ([2]; 10 min): 2.48 (0.36) percent of the dose/g
In-vivo radioactivity distribution: intestine ([2]; 10 min): 3.86 (0.20) percent of the dose/g
In-vivo radioactivity distribution: kidney ([2]; 10 min): 6.59 (1.34) percent of the dose/g
In-vivo radioactivity distribution: liver ([2]; 10 min): 13.29 (1.65) percent of the dose/g
In-vivo radioactivity distribution: lung ([2]; 10 min): 6.33 (1.42) percent of the dose/g
In-vivo radioactivity distribution: pancreas ([2]; 10 min): 2.53 (0.72) percent of the dose/g
In-vivo radioactivity distribution: spleen ([2]; 10 min): 4.00 (1.55) percent of the dose/g
In-vivo radioactivity distribution: stomach ([2]; 10 min): 5.13 (1.67) percent of the dose
In-vivo radioactivity distribution: blood ([2]; 30 min): 2.29 (0.32) percent of the dose/g
In-vivo radioactivity distribution: brain ([2]; 30 min): 0.28 (0.06) percent of the dose/g
In-vivo radioactivity distribution: heart ([2]; 30 min): 1.45 (0.17) percent of the dose/g
In-vivo radioactivity distribution: intestine ([2]; 30 min): 4.36 (1.49) percent of the dose/g
In-vivo radioactivity distribution: kidney ([2]; 30 min): 3.16 (0.80) percent of the dose/g
In-vivo radioactivity distribution: liver ([2]; 30 min): 5.10 (1.12) percent of the dose/g
In-vivo radioactivity distribution: lung ([2]; 30 min): 3.17 (0.52) percent of the dose/g
In-vivo radioactivity distribution: pancreas ([2]; 30 min): 1.48 (0.34) percent of the dose/g
In-vivo radioactivity distribution: spleen ([2]; 30 min): 2.06 (0.28) percent of the dose/g
In-vivo radioactivity distribution: stomach ([2]; 30 min): 9.94 (1.69) percent of the dose
In-vivo radioactivity distribution: blood ([2]; 60 min): 2.89 (0.49) percent of the dose/g
In-vivo radioactivity distribution: brain ([2]; 60 min): 0.15 (0.03) percent of the dose/g
In-vivo radioactivity distribution: heart ([2]; 60 min): 1.43 (0.29) percent of the dose/g
In-vivo radioactivity distribution: intestine ([2]; 60 min): 6.26 (1.78) percent of the dose/g
In-vivo radioactivity distribution: kidney ([2]; 60 min): 2.52 (0.48) percent of the dose/g
In-vivo radioactivity distribution: liver ([2]; 60 min): 4.32 (0.75) percent of the dose/g
In-vivo radioactivity distribution: lung ([2]; 60 min): 3.11 (0.66) percent of the dose/g
In-vivo radioactivity distribution: pancreas ([2]; 60 min): 1.76 (0.40) percent of the dose/g
In-vivo radioactivity distribution: spleen ([2]; 60 min): 2.52 (0.36) percent of the dose/g
In-vivo radioactivity distribution: stomach ([2]; 60 min): 14.32 (1.81) percent of the dose
Ki (Aβ(1-42) aggregate): 14.1 ± 0.6 nM

COc1ccc(/C=C/C(=O)c2ccc(I)cc2)cc1OC [Compound 42 in Example 2, 3,4-dimethoxy-4′-iodochalcone]
binding affinity for the Aβ(1-42) aggregate (Aβ(1-42) aggregate; in words, derivatives with two substituents on Ring A): no compound showed a high binding affinity
Ki (Aβ(1-42) aggregate): 223 ± 76.1 nM

Nc1ccc(C(=O)C=Cc2ccc(Br)s2)cc1 [Compound 44 in Example 2, 3-(5-bromo-2-thienyl)-1-(4-aminophenyl)-prop-2-en-1-one]
Ki (Aβ(1-42) aggregate): 476 ± 47.9 nM

CNc1ccc(C(=O)C=Cc2ccc(Br)s2)cc1 [Compound 45 in Example 2, 3-(5-bromo-2-thienyl)-1-(4-methylaminophenyl)-prop-2-en-1-one]
Ki (Aβ(1-42) aggregate): 198 ± 48.6 nM

CN(C)c1ccc(C(=O)C=Cc2ccc(Br)s2)cc1 [Compound 46 in Example 2, 3-(5-bromo-2-thienyl)-1-(4-dimethylaminophenyl)-prop-2-en-1-one]
Ki (Aβ(1-42) aggregate): 106 ± 7.1 nM
